# From patent US11857661B2, “Anti-dandruff composition” (Kancor Ingredients Ltd, priority 2018, dated 2024)
# Tests used:
# [1] = test system: Malassezia furfur CBS 1878; experiment: Minimum inhibitory concentration, broth dilution; type: cell-based; settings: M. furfur CBS 1878; for minimum inhibition concentration (MIC) value: classic broth dilution protocol
# Source text: Inhibition is defined as giving less than 20% growth compared to a control, as determined by spectrophotometric optical density (OD) reading at 620 nm, using the formula % of growth=[(ODproduct−OCabsorbance-control)]/(ODpositive growth-control).
# (§1) As noted above, the anti-dandruff active portion of the anti-dandruff composition comprises (or consists essentially of) a combination of at least two of the three described anti-dandruff actives (i.e., the punicalagin composition, the first monoterpenoid composition, and the second monoterpenoid composition). The combinations are based on the additive or synergistic relationship between the individual anti-dandruff actives. Inhibition testing of the individual anti-dandruff actives to determine MIC levels followed the principles and general methods disclosed in C. Lens-Lisbonne, et al. “Methods for the evaluation of antibacterial activity of essential oils: applications to essences of thyme and cinnamon,” J. Pharm. Belg., 1987, 42(5): 297-302; and C. Lisbonne “Evaluation of bacteriostatic activity of essential oils and their components,” Doctoral Thesis, Pharmacy Faculty, Marseille, F R 1988. Interactions of bi-component mixtures (Fractional Inhibitory Concentration) were evaluated in accordance with the method described by J. L. Pons et al., “Evaluation of antimicrobial interactions between chlorhexidine, quaternary ammonium compounds, preservatives and excipients,” J. Appl. Bacteriol., 1992, 73, 395-400, to assess their additive or synergistic effects.
# Briefly, as is commonly known by those skilled in the art of the instant disclosure, assessment of Malassezia furfur inhibition may be accomplished following standard and accepted practices, such as that described in U.S. Patent Application Publication No. 2008/0249186. Accordingly, an external testing laboratory performed a series of against Malassezia furfur to evaluate antimicrobial activity and interactions (see Lens, et al. “Methods for the evaluation of antimicrobial activity of essential oils,” J. Pharm. Belg. 1987). Inhibitory activity testing was conducted by mixing 100 μl of various dilutions of the test product at a double concentration with an equal volume (100 μl) of a double strength Difco™ Sabouraud dextrose broth supplemented with olive oil, inoculated between 2 to 6×10^5 cfu/mL. After incubation (24-72 hours, at 32.5° C.±2.5° C.), a spectrophotometric reading at 620 nm is performed and the percentage of growth calculated from optical density (OD) measuring each concentration with respect to a positive growth control according to the following equation: % of growth=[ODproduct−ODabsorbance-control)]/(ODpositive growth-control).
# Each concentration was tested in triplicate, and two assays were performed per product. The positive growth control consisted of 100 μl 1% agar solution mixed with 100 μl of inoculated broth.
# [2] = test system: Malassezia furfur CBS 1878; experiment: Association testing, checkerboard titration (FIC index); type: cell-based; settings: M. furfur CBS 1878; sample B alone
# Source text: as §1
# Study of Associations. After obtaining the MIC levels for each of the anti-dandruff actives by broth dilution method, a checkerboard titration technique was performed to assess the synergistic activity of the combinations. In order to evaluate the activity of the combinations of the anti-dandruff actives, a Fractional Inhibitory Concentration index (FICindex) was calculated: (FICindex)=FIC^A+FIC^B, where FIC^A and FIC^B represent the minimum concentrations inhibiting the M. furfur growth for anti-dandruff actives A and B, respectively. And FIC^A=MIC^Acombination/MIC^Aalone, and FIC^B=MIC^Bcombination/MIC^Balone.] A mean FIC index was calculated based on the following equation: FICindex=FIC^A+FIC^B. Synergism is defined as FIC≤0.75; additive as FIC˜1; indifference as 1<FIC≤2; and antagonism is defined as FIC>2, as reported by J. L. Pons; N. Bonnaveiro; J. Chevalier; and A. Crémieux, “Evaluation of antimicrobial interactions between chlorhexidine, quaternary ammonium compounds, preservatives and excipients,” J. Appl. Bacteriology, 1992, 73(5), 395-400.
Compound,"Minimum Inhibitory Concentration, Test 1 [1] [%]","Minimum Inhibitory Concentration, Test 2 [1] [%]",minimum inhibition concentration (MIC) value [1] [%],MIC B Alone % [2] [%]
"O=c1oc2c(O)c(O)cc3c(=O)oc4c(O)c(O)cc1c4c23 [EA, Ellagic Acid]",0.5,0.5,0.5,0.5
"CC1=CCC(C(C)C)=CC1 [GTP, gamma-terpinene]",,,> 1,>1
"Cc1ccc(C(C)C)cc1 [PCY, para-cymene]",,,0.5,0.5
"Cc1ccc(C(C)C)c(O)c1 [TML, thymol]",,,0.05,0.05
Punicalagins A&B,0.05,0.05,0.05,0.05
